Drawing on patent US20140005163A1 (NOVARTIS AG, priority 2010, published 2014), this text covers solubility and IC50 for 15 compounds.

Values after ≈ are worked out from the molar mass of the structure shown.

Data set [1] in a line: Solubility at pH 6.8. In kind it is physicochemical. The note with it: pH 6.8, aqueous buffer, thermodynamic from solid; read-out: solubility. The essentials: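 Following the procedure of Zhou et al. (2007), compound solubility was determined at pH 6.8.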
The target in data set [2] is T1, mTOR (Homo sapiens, UniProt P42345).
T1 construct: purchased Invitrogen Corporation (Carlsbad/CA, USA) PV4753
The data set is described as follows: Biochemical assay for m-TOR by TR-FRET. The note with it: 8 μM ATP, 400 nM GFP-4EBP1, 0.5 nM mTOR. The essentials:
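Enzyme 0.5 nM, GFP-4EBP1 400 nM, ATP 8 μM (all final); 50 mM HEPES pH 7.5, 10 mM MnCl2, 1 mM DTT; rt. Detection: Tb-α-p4EBP1 [pT46] 0.5 nM in EDTA, TR-FRET, 15 min. Reference compound on every plate, 16-point duplicate dilutions.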
(In general: Time-resolved FRET reads energy transfer from a long-lived donor to a nearby acceptor.)

Data set [3] has as its system PKB Ser473 phosphorylation in Rat1-myr-HA-p110 alpha cells. Briefly: Reverse protein array assay, PKB Ser473 phosphorylation in Rat1-myr-p110 alpha cells. Type of data set: cell-based. The following applies: 0.5 h, pAkt Ser473, 30 minutes compound incubation, read-out: p-PKB IC50. The method, boiled down:
(§1)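 Compound exposure lasted 30 min in Rat1 cells bearing membrane-targeted HA-p110 isoforms, using 8 serial concentrations. Arrayed lysates, each spotted at four dilutions, gave relative fluorescence signals for phospho-Ser473 PKB.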

The subject of data set [4] is PKB Ser473 phosphorylation in Rat1-myr-HA-p110 beta cells. The data set is described as follows: Reverse protein array assay, PKB Ser473 phosphorylation in Rat1-myr-p110 beta cells. Type of data set: cell-based. The following applies: 0.5 h, pAkt Ser473, 30 minutes incubation, read-out: p-PKB IC50. The essentials: as §1
In data set [5] the test system is PKB Ser473 phosphorylation in Rat1-myr-HA-p110 delta cells. Briefly: Reverse protein array assay, PKB Ser473 phosphorylation in Rat1-myr-p110 delta cells. In kind it is cell-based. The following applies: read-out: p-PKB IC50. The essentials:
as §1

Data set [6] concerns S6 Ribosomal Protein phosphorylation Ser235/236 in TSC1 null mouse embryo fibroblast (MEF) cells. Briefly: Reverse protein array assay, S6 Ribosomal Protein phosphorylation Ser235/236 in TSC1 null MEF cells. The note with it: 1 h, pS6 ribosomal protein Ser235/236, 60 minutes incubation, read-out: p-S6 IC50. Type of data set: cell-based. The method, boiled down:
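TSC1−/− MEFs, seeded and held ≥20 h at 37 °C/5% CO2, were exposed to 8-step serial compound dilutions (0.02% DMSO final; DMSO vehicle control) for 60 min at 37 °C. Cells were then lysed on ice for 10 min and lysates spotted onto reverse protein array chips.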

T1 sequence (P42345 1360-2549 limits assumed): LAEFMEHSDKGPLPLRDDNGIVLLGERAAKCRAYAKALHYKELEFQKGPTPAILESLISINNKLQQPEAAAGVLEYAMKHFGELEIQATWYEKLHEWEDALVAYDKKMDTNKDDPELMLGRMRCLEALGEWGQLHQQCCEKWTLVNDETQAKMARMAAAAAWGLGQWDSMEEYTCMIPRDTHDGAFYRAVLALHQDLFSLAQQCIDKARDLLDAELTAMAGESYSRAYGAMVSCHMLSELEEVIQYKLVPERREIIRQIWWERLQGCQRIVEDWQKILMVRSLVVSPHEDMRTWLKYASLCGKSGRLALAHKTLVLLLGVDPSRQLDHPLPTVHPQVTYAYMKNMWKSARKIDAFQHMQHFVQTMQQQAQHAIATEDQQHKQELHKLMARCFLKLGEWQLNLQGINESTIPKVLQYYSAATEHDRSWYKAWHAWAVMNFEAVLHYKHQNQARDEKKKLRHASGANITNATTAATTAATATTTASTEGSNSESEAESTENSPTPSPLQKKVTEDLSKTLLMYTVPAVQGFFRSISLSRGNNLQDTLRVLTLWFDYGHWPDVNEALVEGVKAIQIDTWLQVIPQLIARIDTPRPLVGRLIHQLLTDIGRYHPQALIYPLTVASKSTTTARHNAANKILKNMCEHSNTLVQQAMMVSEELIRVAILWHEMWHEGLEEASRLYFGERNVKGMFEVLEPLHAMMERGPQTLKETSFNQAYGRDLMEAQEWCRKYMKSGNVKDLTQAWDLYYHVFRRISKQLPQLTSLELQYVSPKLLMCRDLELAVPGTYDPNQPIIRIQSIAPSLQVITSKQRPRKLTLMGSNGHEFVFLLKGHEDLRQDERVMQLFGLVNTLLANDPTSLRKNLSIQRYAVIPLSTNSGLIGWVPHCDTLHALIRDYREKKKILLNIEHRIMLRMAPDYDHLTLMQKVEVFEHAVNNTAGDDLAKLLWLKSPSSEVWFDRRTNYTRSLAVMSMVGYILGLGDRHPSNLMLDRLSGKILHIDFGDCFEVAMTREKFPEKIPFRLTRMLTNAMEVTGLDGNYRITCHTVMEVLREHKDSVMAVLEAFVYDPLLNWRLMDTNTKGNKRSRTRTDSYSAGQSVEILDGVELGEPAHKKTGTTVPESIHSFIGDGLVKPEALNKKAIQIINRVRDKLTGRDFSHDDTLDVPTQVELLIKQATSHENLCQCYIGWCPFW

The term solubility denotes how much of the substance goes into solution per volume. As usually defined, the IC50 is the concentration that inhibits the measured activity by half. For the compound `COCCOc1ccc(-c2ccc3ncc4c(c3c2)n(-c2cn(C)nc2C)c(=O)n4C)cc1OC` [Example 30.1, 1-(1,3-Dimethyl-1H-pyrazol-4-yl)-8-[3-methoxy-4-(2-methoxy-ethoxy)-phenyl]-3-methyl-1,3-dihydro-imidazo[4,5-c]quinolin-2-one], the solubility in data set [1] is 4 µg/mL (≈ 8.45 µM). Moreover, the IC50 in data set [2] worked out at 52 nM; in data set [3] it was 30 nM; in data set [4], 38 nM; in data set [5] it was 91 nM; in data set [6] it was 14 nM.
As to `CCn1cc(-n2c(=O)n(C)c3cnc4ccc(-c5cncc(OC(C)C)c5)cc4c32)c(C)n1` [Example 58.4, 1-(1-Ethyl-3-methyl-1H-pyrazol-4-yl)-8-(5-isopropoxy-pyridin-3-yl)-3-methyl-1,3-dihydro-imidazo[4,5-c]quinolin-2-one], the solubility in data set [1] stood at 27 µg/mL (≈ 61 µM). The IC50 in data set [2] amounted to 31 nM; in data set [3], 25 nM; in data set [4], 139 nM; in data set [5], 86 nM; in data set [6] it was 2 nM.
Regarding `COCCn1c(=O)n(C)c2ncc(-c3ccc4ncc5c(c4c3)n(-c3cn(C)nc3C)c(=O)n5C)cc21` [Example 69, 1-(1,3-Dimethyl-1H-pyrazol-4-yl)-8-[1-(2-methoxy-ethyl)-3-methyl-2-oxo-2,3-dihydro-1H-imidazo[4,5-b]pyridin-6-yl]-3-methyl-1,3-dihydro-imidazo[4,5-c]quinolin-2-one], in data set [1], the solubility was found to be 3 µg/mL (≈ 6.02 µM). The IC50 in data set [2] was 639 nM; in data set [3], 755 nM; in data set [5], 810 nM.
With `Cc1nn(C(C)C)cc1-n1c(=O)n(C)c2cnc3ccc(-c4ccc(N)nc4)cc3c21` [Example 23.2, 8-(6-Amino-pyridin-3-yl)-1-(1-isopropyl-3-methyl-1H-pyrazol-4-yl)-3-methyl-1,3-dihydro-imidazo[4,5-c]quinolin-2-one], in data set [1], the solubility was determined as 45 µg/mL (≈ 109 µM). The IC50 in data set [2] was found to be 7 nM; in data set [3], 11 nM; in data set [4], 6 nM; in data set [5], 18 nM; in data set [6], 2 nM.
Turning to `CCNC(=O)c1cc(-c2ccc3ncc4c(c3c2)n(-c2cn(C)nc2C)c(=O)n4C)cnc1NC` [Example 242.1, 5-[1-(1,3-Dimethyl-1H-pyrazol-4-yl)-3-methyl-2-oxo-2,3-dihydro-1H-imidazo[4,5-c]quinolin-8-yl]-N-ethyl-2-methylamino-nicotinamide], the solubility in data set [1] turned out to be 5 µg/mL (≈ 10.6 µM). Moreover, the half-maximal inhibitory concentration (IC50) in data set [2] is 58 nM; in data set [3], 45 nM; in data set [4] it was 94 nM; in data set [5] it was 85 nM; in data set [6], 2 nM.
For `Cc1nn(C)cc1-n1c(=O)n(C)c2cnc3ccc(-c4cncc(N)c4)cc3c21` [Example 45.1, 8-(5-Amino-pyridin-3-yl)-1-(1,3-dimethyl-1H-pyrazol-4-yl)-3-methyl-1,3-dihydro-imidazo[4,5-c]quinolin-2-one], the solubility in data set [1] was more than 385 µg/mL. Further, the half-maximal inhibitory concentration (IC50) in data set [2] worked out at 7 nM; in data set [3], 60 nM; in data set [4], 80 nM; in data set [5], 154 nM; in data set [6], 43.5 nM.
In the case of `Cc1nn(C)cc1-n1c(=O)n(C)c2cnc3ccc(-c4cnc5c(c4)nc(N(C)C)n5C)cc3c21` [Example 70, 8-(2-Dimethylamino-3-methyl-3H-imidazo[4,5-b]pyridin-6-yl)-1-(1,3-dimethyl-1H-pyrazol-4-yl)-3-methyl-1,3-dihydro-imidazo[4,5-c]quinolin-2-one], the solubility in data set [1] is 47 µg/mL (≈ 101 µM). Moreover, the IC50 is 81 nM in data set [2], 176 nM in data set [4], 275 nM in data set [5] and 16 nM in data set [6].
Consider `Cc1nn(CCO)cc1-n1c(=O)n(C)c2cnc3ccc(-c4cncc(N5CCOCC5)c4)cc3c21` [Example 175.3, 1-[1-(2-Hydroxy-ethyl)-3-methyl-1H-pyrazol-4-yl]-3-methyl-8-(5-morpholin-4-yl-pyridin-3-yl)-1,3-dihydro-imidazo[4,5-c]quinolin-2-one], for which the solubility in data set [1] is more than 486 µg/mL. Further, the IC50 was found to be 19 nM in data set [2], 344 nM in data set [3], 692 nM in data set [4] and 151 nM in data set [6].
Take `COc1ccc(-c2ccc3ncc4c(c3c2)n(-c2c(C)nn(C)c2C)c(=O)n4C)cn1` [Example 2.4, 8-(6-Methoxy-pyridin-3-yl)-3-methyl-1-(1,3,5-trimethyl-1H-pyrazol-4-yl)-1,3-dihydro-imidazo[4,5-c]quinolin-2-one]: in data set [1], the solubility stood at 50 µg/mL (≈ 121 µM). Besides, the IC50 turned out to be 448 nM in data set [2], 65 nM in data set [3], 386 nM in data set [4] and 882 nM in data set [5].
On the same counts, the results for `Cc1cc(-n2c(=O)n(C)c3cnc4ccc(-c5ccc(C(F)(F)F)nc5)cc4c32)n(C)n1` [Example 8.2, 1-(2,5-Dimethyl-2H-pyrazol-3-yl)-3-methyl-8-(6-trifluoromethyl-pyridin-3-yl)-1,3-dihydro-imidazo[4,5-c]quinolin-2-one] are 4 µg/mL (≈ 9.12 µM), 677 nM, 192 nM, 326 nM and 412 nM.
With `Cc1nn(C)c(C)c1-n1c(=O)n(C)c2cnc3ccc(-c4ccc(N(C)C)nc4)cc3c21` [Example 4.3, 8-(6-Dimethylamino-pyridin-3-yl)-3-methyl-1-(1,3,5-trimethyl-1H-pyrazol-4-yl)-1,3-dihydro-imidazo[4,5-c]quinolin-2-one], the solubility in data set [1] came out at 71 µg/mL (≈ 166 µM). The IC50 in data set [2] is 543 nM; in data set [3], 68 nM; in data set [4], 615 nM; in data set [5], 787 nM.
Consider `CCOc1cncc(-c2ccc3ncc4c(c3c2)n(-c2c(C)cnn2C)c(=O)n4C)c1` [Example 56.5, 1-(2,4-Dimethyl-2H-pyrazol-3-yl)-8-(5-ethoxy-pyridin-3-yl)-3-methyl-1,3-dihydro-imidazo[4,5-c]quinolin-2-one], for which the solubility in data set [1] was determined as 16 µg/mL (≈ 38.6 µM). Also, the IC50 was found to be 763 nM in data set [2], 846 nM in data set [3] and 130 nM in data set [6].
Regarding `Cc1nn(C)c(C)c1-n1c(=O)n(C)c2cnc3ccc(-c4cccc(O)c4)cc3c21` [Example 32.2, 8-(3-Hydroxy-phenyl)-3-methyl-1-(1,3,5-trimethyl-1H-pyrazol-4-yl)-1,3-dihydro-imidazo[4,5-c]quinolin-2-one], the solubility in data set [1] amounted to 194 µg/mL (≈ 486 µM). In addition, the IC50 came to 221 nM in data set [3], 725 nM in data set [4], 366 nM in data set [5] and 558 nM in data set [6].
`CCOc1ccc(-c2ccc3ncc4c(c3c2)n(-c2c(C)nn(C)c2C)c(=O)n4C)cc1OC` [Example 29.2, 8-(4-Ethoxy-3-methoxy-phenyl)-3-methyl-1-(1,3,5-trimethyl-1H-pyrazol-4-yl)-1,3-dihydro-midazo[4,5-c]quinolin-2-one]: in data set [1], the solubility came out at 7 µg/mL (≈ 15.3 µM). For the same compound, the IC50 in data set [2] stood at 778 nM; in data set [3], 50 nM; in data set [4] it was 143 nM; in data set [5] it was 234 nM.
Take `CCc1ncc(-c2ccc3ncc4c(c3c2)n(-c2cn(C)nc2C)c(=O)n4C)cc1NC(C)C` [Example 162, 1-(1,3-Dimethyl-1H-pyrazol-4-yl)-8-(6-ethyl-5-isopropylamino-pyridin-3-yl)-3-methyl-1,3-dihydro-imidazo[4,5-c]quinolin-2-one]: the solubility in data set [1] was more than 456 µg/mL. The IC50 in data set [2] is 3 nM; in data set [3], less than 5 nM; in data set [4] it was less than 5 nM.
